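96-well plates; 48 h exposure; 5 concentrations. Endpoints by linear interpolation between flanking doses. Not reached: highest tested concentration assigned. The concentration for 50% growth inhibition is given as GI50. Definition used: TGI = concentration required for complete inhibition of growth.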
Legend:
Assay in all cases: growth of human tumour cells (NCI), 48 h
SN12C renal = system: SN12C renal
A549 NSCLC = system: A549 NSCLC
NCI-H226 lung = system: NCI-H226 lung
DU-145 prostate = system: DU-145 prostate
ACHN renal = system: ACHN renal
MDA-MB-435 = system: MDA-MB-435
HS 578T breast = system: HS 578T breast
SNB-19 CNS = system: SNB-19 CNS
A498 renal = system: A498 renal
COLO 205 colon = system: COLO 205 colon
UACC-257 melanoma = system: UACC-257 melanoma
MCF7 breast = system: MCF7 breast
RXF 393 renal = system: RXF 393 renal
OVCAR-4 ovarian = system: OVCAR-4 ovarian
CCRF-CEM leukemia = system: CCRF-CEM leukemia
SK-MEL-5 melanoma = system: SK-MEL-5 melanoma
SR leukemia = system: SR leukemia
IGROV1 ovarian = system: IGROV1 ovarian
SK-MEL-28 melanoma = system: SK-MEL-28 melanoma
CAKI-1 renal = system: CAKI-1 renal
T-47D breast = system: T-47D breast
786-0 renal = system: 786-0 renal
BT-549 breast = system: BT-549 breast
SF-268 CNS = system: SF-268 CNS
HCT-15 colon = system: HCT-15 colon
OVCAR-8 ovarian = system: OVCAR-8 ovarian
HT29 colon = system: HT29 colon
RPMI-8226 leukemia = system: RPMI-8226 leukemia
U251 CNS = system: U251 CNS
TK-10 renal = system: TK-10 renal
OVCAR-3 ovarian = system: OVCAR-3 ovarian
SK-MEL-2 melanoma = system: SK-MEL-2 melanoma
NCI/ADR-RES ovarian = system: NCI/ADR-RES ovarian
SW-620 colon = system: SW-620 colon
MALME-3M melanoma = system: MALME-3M melanoma
HCC-2998 colon = system: HCC-2998 colon
LOX IMVI melanoma = system: LOX IMVI melanoma
HOP-62 NSCLC = system: HOP-62 NSCLC
NCI-H460 lung = system: NCI-H460 lung
SF-539 CNS = system: SF-539 CNS
SK-OV-3 ovarian = system: SK-OV-3 ovarian
UACC-62 melanoma = system: UACC-62 melanoma
PC-3 prostate = system: PC-3 prostate
SF-295 CNS = system: SF-295 CNS
OVCAR-5 ovarian = system: OVCAR-5 ovarian
M14 melanoma = system: M14 melanoma
EKVX NSCLC = system: EKVX NSCLC
UO-31 renal = system: UO-31 renal
NCI-H522 lung = system: NCI-H522 lung
MOLT-4 leukemia = system: MOLT-4 leukemia
KM12 colon = system: KM12 colon
HCT-116 colon = system: HCT-116 colon
SNB-75 CNS = system: SNB-75 CNS
HOP-92 NSCLC = system: HOP-92 NSCLC
NCI-H23 lung = system: NCI-H23 lung
MDA-MB-231 breast = system: MDA-MB-231 breast

Oc1ccc(-c2cn3ccsc3n2)cc1O
GI50 (SN12C renal): 18.5 µM
TGI (SN12C renal): 37.8 µM
GI50 (A549 NSCLC): 72.8 µM
TGI (A549 NSCLC): > 100 µM
GI50 (NCI-H226 lung): 20.9 µM
TGI (NCI-H226 lung): 60.2 µM
GI50 (DU-145 prostate): 28.7 µM
TGI (DU-145 prostate): > 100 µM
GI50 (ACHN renal): 22 µM
TGI (ACHN renal): 56.3 µM
GI50 (MDA-MB-435): 22.1 µM
TGI (MDA-MB-435): 47.8 µM
GI50 (HS 578T breast): 0.203 µM
TGI (HS 578T breast): 22.4 µM
GI50 (SNB-19 CNS): 49.9 µM
TGI (SNB-19 CNS): > 100 µM
GI50 (A498 renal): 25.9 µM
TGI (A498 renal): 83.6 µM
GI50 (COLO 205 colon): 29.9 µM
TGI (COLO 205 colon): > 100 µM
GI50 (UACC-257 melanoma): > 100 µM
TGI (UACC-257 melanoma): > 100 µM
GI50 (MCF7 breast): 18.3 µM
TGI (MCF7 breast): > 100 µM
GI50 (RXF 393 renal): 78 µM
TGI (RXF 393 renal): > 100 µM
GI50 (OVCAR-4 ovarian): 32.7 µM
TGI (OVCAR-4 ovarian): > 100 µM
GI50 (CCRF-CEM leukemia): 4.41 µM
TGI (CCRF-CEM leukemia): 29.6 µM
GI50 (SK-MEL-5 melanoma): 10.5 µM
TGI (SK-MEL-5 melanoma): 26.7 µM
GI50 (SR leukemia): 10.6 µM
TGI (SR leukemia): 41.4 µM
GI50 (IGROV1 ovarian): 21.3 µM
TGI (IGROV1 ovarian): > 100 µM
GI50 (SK-MEL-28 melanoma): 32.9 µM
TGI (SK-MEL-28 melanoma): > 100 µM
GI50 (CAKI-1 renal): 26.3 µM
TGI (CAKI-1 renal): > 100 µM
GI50 (T-47D breast): 32.4 µM
TGI (T-47D breast): > 100 µM
GI50 (786-0 renal): 36.6 µM
TGI (786-0 renal): > 100 µM
GI50 (BT-549 breast): 10.2 µM
TGI (BT-549 breast): 30.7 µM
GI50 (SF-268 CNS): 27.8 µM
TGI (SF-268 CNS): > 100 µM
GI50 (HCT-15 colon): 37.8 µM
TGI (HCT-15 colon): > 100 µM
GI50 (OVCAR-8 ovarian): 35.8 µM
TGI (OVCAR-8 ovarian): > 100 µM
GI50 (HT29 colon): 29.5 µM
TGI (HT29 colon): > 100 µM
GI50 (RPMI-8226 leukemia): 12.1 µM
TGI (RPMI-8226 leukemia): 65.4 µM
GI50 (U251 CNS): 21.5 µM
TGI (U251 CNS): 46.7 µM
GI50 (TK-10 renal): 63.1 µM
TGI (TK-10 renal): > 100 µM
GI50 (OVCAR-3 ovarian): 15.6 µM
TGI (OVCAR-3 ovarian): 46.4 µM
GI50 (SK-MEL-2 melanoma): 35.1 µM
TGI (SK-MEL-2 melanoma): > 100 µM
GI50 (NCI/ADR-RES ovarian): > 100 µM
TGI (NCI/ADR-RES ovarian): > 100 µM
GI50 (SW-620 colon): 11.5 µM
TGI (SW-620 colon): 70.5 µM
GI50 (MALME-3M melanoma): 30.8 µM
TGI (MALME-3M melanoma): 84.4 µM
GI50 (HCC-2998 colon): 78 µM
TGI (HCC-2998 colon): > 100 µM
GI50 (LOX IMVI melanoma): 18.1 µM
TGI (LOX IMVI melanoma): 41.7 µM
GI50 (HOP-62 NSCLC): 43.2 µM
TGI (HOP-62 NSCLC): > 100 µM
GI50 (NCI-H460 lung): 45.8 µM
TGI (NCI-H460 lung): > 100 µM
GI50 (SF-539 CNS): 19.7 µM
TGI (SF-539 CNS): 79.6 µM
GI50 (SK-OV-3 ovarian): > 100 µM
TGI (SK-OV-3 ovarian): > 100 µM
GI50 (UACC-62 melanoma): 19.6 µM
TGI (UACC-62 melanoma): 43.9 µM
GI50 (PC-3 prostate): 21.7 µM
TGI (PC-3 prostate): > 100 µM
GI50 (SF-295 CNS): 69.6 µM
TGI (SF-295 CNS): > 100 µM
GI50 (OVCAR-5 ovarian): 38.9 µM
TGI (OVCAR-5 ovarian): > 100 µM
GI50 (M14 melanoma): 26.1 µM
TGI (M14 melanoma): 75.3 µM
GI50 (EKVX NSCLC): 16.7 µM
TGI (EKVX NSCLC): 38.9 µM
GI50 (UO-31 renal): 16 µM
TGI (UO-31 renal): > 100 µM
GI50 (NCI-H522 lung): 11.5 µM
TGI (NCI-H522 lung): 33.2 µM
GI50 (MOLT-4 leukemia): 11 µM
TGI (MOLT-4 leukemia): 55.4 µM
GI50 (KM12 colon): 27.7 µM
TGI (KM12 colon): > 100 µM
GI50 (HCT-116 colon): 18.1 µM
TGI (HCT-116 colon): 37.8 µM
GI50 (SNB-75 CNS): 55.1 µM
TGI (SNB-75 CNS): > 100 µM
GI50 (HOP-92 NSCLC): 23 µM
TGI (HOP-92 NSCLC): 78.5 µM
GI50 (NCI-H23 lung): 46.3 µM
TGI (NCI-H23 lung): > 100 µM
GI50 (MDA-MB-231 breast): 17.6 µM
TGI (MDA-MB-231 breast): 44.2 µM
